Measured values taken from ChEMBL document CHEMBL5058564, “EUbOPEN Chemogenomics Library 2 (Incucyte)” (2022).
Where a SMILES comes first, the peptide text is derived from it. Bridges are numbered along the chain shown (N, C = ends). [ ]: non-standard residue; d: D form. Orn = NCCC[C@H](N)C(=O)O; Mpa = O=C(O)CCS

Columns and labels:
Type in all cases: toxicity, cell-based
[1] = tested on: HEK-293T; assay: Incucyte cell viability with HEK293T; conditions: human, 10 µM, compound concentration 10 uM
[2] = tested on: Fibroblast; assay: Incucyte cell viability with human fibroblast; conditions: 10 µM, compound concentration 10 uM
[3] = tested on: U2OS; assay: Incucyte cell viability with U2OS; conditions: human, 10 µM, compound concentration 10 uM
[4] = 0 h, replicate number 1, timepoint 0 hours
[5] = 0 h, replicate number 2, timepoint 0 hours
[6] = 6 h, replicate number 1, timepoint 6 hours
[7] = 6 h, replicate number 2, timepoint 6 hours
[8] = 12 h, replicate number 1, timepoint 12 hours
[9] = 12 h, replicate number 2, timepoint 12 hours
[10] = 18 h, replicate number 1, timepoint 18 hours
[11] = 18 h, replicate number 2, timepoint 18 hours
[12] = 24 h, replicate number 1, timepoint 24 hours
[13] = 24 h, replicate number 2, timepoint 24 hours
Note: unitless GR value; below 1 slowed growth and below 0 cell loss.

Row | SMILES | Growth Rate [1, 5] | Growth Rate [1, 6] | Growth Rate [1, 7] | Growth Rate [1, 8] | Growth Rate [1, 9] | Growth Rate [1, 10] | Growth Rate [1, 11] | Growth Rate [1, 12] | Growth Rate [1, 13] | Growth Rate [2, 4] | Growth Rate [2, 5] | Growth Rate [3, 10] | Growth Rate [3, 11] | Growth Rate [2, 8] | Growth Rate [3, 5] | Growth Rate [3, 7] | Growth Rate [3, 9] | Growth Rate [3, 6] | Growth Rate [2, 10] | Growth Rate [2, 12] | other results
1 | CC1(COc2ccc3c(c2)ncn3-c2ccc3cccc(N4CCC(N)CC4)c3n2)COC1 [CRENOLANIB] | -0.11 | -0.46 | -0.5 | -0.32 | -0.23 | -0.28 | -0.21 | -0.22 | -0.19 | -0.8 | -0.75 | 0.87 | 0.92 |  |  |  |  |  |  |  | Growth Rate [1, 4]: -0.26; Growth Rate [3, 12]: 0.54; Growth Rate [3, 13]: 0.8
2 | CCOc1ccc(C[C@H]2NC(=O)CCSSC[C@@H](C(=O)N3CCC[C@H]3C(=O)N[C@@H](CCCN)C(=O)NCC(N)=O)NC(=O)[C@H](CC(N)=O)NC(=O)[C@H]([C@@H](C)O)NC(=O)[C@H]([C@@H](C)CC)NC2=O)cc1 [ATOSIBAN] ([Mpa][dY](Et)ITNCP[Orn]G-NH2; disulfide 1-6) |  |  | 0.92 |  | 0.83 |  | 0.78 |  | 0.7 | 0.49 | 0.42 | 0.79 | 0.89 | 0.64 | -1 | 0.76 | 0.97 |  |  |  | Growth Rate [1, 4]: 0.87; Growth Rate [2, 7]: 0.56; Growth Rate [2, 9]: 0.4
3 | O=C(O)c1cccc(/C=C2/C[C@@H]3[C@@H](/C=C/[C@H](O)C4CCCCC4)[C@H](O)C[C@@H]3O2)c1 | -0.26 |  |  |  |  | 0.98 | 1 | 0.9 | 0.92 | -0.51 | -0.06 | 0.9 |  |  | 0.48 | 0.71 | 0.94 | 0.65 |  |  | Growth Rate [1, 4]: -0.12; Growth Rate [2, 7]: 0.96; Growth Rate [2, 9]: 0.77; Growth Rate [2, 13]: 0.89; Growth Rate [3, 8]: 0.59
4 | Cn1cc(C(=O)OCC2CCN(CCNS(C)(=O)=O)CC2)c2ccccc21 |  | 0.81 |  | 0.43 |  | 0.29 |  | 0.35 | 0.96 | 0.81 |  |  | 0.89 | 0.1 |  | 0.45 | 0.95 |  | 0.33 | 0.43 | Growth Rate [2, 6]: -0.25; Growth Rate [2, 9]: 0.4; Growth Rate [2, 13]: 0.82
5 | Cc1nn(C)c(C)c1-c1cccc2c1CC[C@H](N(C)C)C2 | 0.25 | 0.95 |  | 0.97 |  | 0.97 |  | 0.9 |  | 0.48 | -0.09 | 0.69 | 0.97 | 0.75 | 0.01 | 0.91 | 0.8 | 0.52 | 0.49 | 0.61 | Growth Rate [3, 4]: -0.3; Growth Rate [3, 8]: 0.78; Growth Rate [3, 12]: 0.86; Growth Rate [3, 13]: 0.99
6 | C[C@H]1[C@H]2CC[C@H]3[C@@H]4CC=C5C[C@@H](N(C)C)CC[C@]5(C)[C@H]4CC[C@]23CN1C [CONESSINE] | 0.74 | 0.67 |  | 0.85 |  | 0.82 |  | 0.91 |  |  | 0.49 |  |  | 0.18 |  | 0.8 | 0.89 |  | 0.35 | 0.52 | Growth Rate [2, 6]: 0.11
7 | CCCCCCCCc1ccc(CC[C@](N)(CO)COP(=O)(O)O)cc1 [FTY720-P] | 0.4 | -0.47 | 0.66 | -0.14 | 0.46 | 0.01 | 0.48 | 0.01 | 0.37 |  |  |  | 1 | 0.21 | -0.7 | 0.43 |  | 0.87 | 0.14 | 0.09 | Growth Rate [2, 6]: 0.71; Growth Rate [2, 11]: 0.85; Growth Rate [2, 13]: 0.65; Growth Rate [3, 4]: 0.2; Growth Rate [3, 8]: 0.79
8 | CCCN1CCO[C@H]2c3cc(O)ccc3OC[C@@H]21.Cl | -0.13 |  |  |  |  |  |  |  | 0.96 | 0.77 | 0.29 | 0.92 |  | 0.98 |  |  |  | 0.6 | 0.72 | 0.8 | Growth Rate [1, 4]: 0.72; Growth Rate [3, 4]: 0.55; Growth Rate [3, 8]: 0.93
9 | O=C(O)C(F)(F)F.O=C1NC(=O)/C(=C/c2c[nH]c(=O)c(-c3ccc(N4CCNCC4)nc3)c2)S1 | 0.65 |  | 0.18 |  | 0.7 |  | 0.92 |  |  | 0.44 |  | 1 |  |  | -1 |  |  | 0.45 |  |  | Growth Rate [1, 4]: 0.87; Growth Rate [2, 7]: 0.04; Growth Rate [2, 9]: 0.66; Growth Rate [2, 11]: 0.64; Growth Rate [2, 13]: 0.71; Growth Rate [3, 4]: -0.39; Growth Rate [3, 8]: 0.51; Growth Rate [3, 13]: 0.94
10 | Cl.Clc1ccc2nsnc2c1NC1=NCCN1 [TIZANIDINE HYDROCHLORIDE] |  |  | 0.88 | 1 | 0.61 |  |  |  |  |  | 0.25 |  |  | 0.72 | -1 |  |  | 0.31 | 0.25 | 0.25 | Growth Rate [2, 6]: -0.29; Growth Rate [3, 4]: 0.36
11 | NC(=O)c1cc2c(-c3ccc(C(=O)NCc4ccnc(Cl)c4)s3)cccc2s1 |  | -0.01 | 0.1 | -0.09 | 0.13 | -0.18 | -0.06 | -0.15 | 0.01 |  |  | 0.07 | 0 | -0.77 | -0.83 | 0.04 | 0.03 | -0.27 | -0.53 | -0.39 | Growth Rate [2, 6]: -0.81; Growth Rate [2, 7]: -0.97; Growth Rate [2, 9]: -0.62; Growth Rate [2, 11]: -0.15; Growth Rate [2, 13]: 0.32; Growth Rate [3, 8]: -0.23; Growth Rate [3, 12]: -0.11; Growth Rate [3, 13]: -0.08
